Experimental data taken from patent publication US20080051419A1, “AMINE DERIVATIVES USEFUL AS ANTICANCER AGENTS” (PFIZER INC., priority 2006, published 2008).
Read-outs that look alike come from different tables or passages of the source.

Molecular target: T1, Akt1 (Homo sapiens, UniProt P31749, S473D)
T1 construct: The version of Akt used in these studies lacks the pleckstrin homology (PH) domain
Assay: Akt1 kinase assay, fluorescence polarization (IMAP)
Format: biochemical
How it was run: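 His-tagged Akt1 lacking the PH domain, Thr308-prephosphorylated, 1.5 ng per reaction, with 4 μM ATP and 40 nM TAMRA-Crosstide (solution concentrations) in Tris pH 7.5/MgCl2/DTT buffer. Incubated 30 min at ambient temperature; IMAP fluorescence polarization read (544/615 nm). IC50 after subtraction of no-enzyme background.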

[1] = Table 1, concentration bins, read-out: Concentration Range at which exemplary compounds of formula I inhibit Akt kinase activity
[2] = Table 3, read-out: Avg Akt kinase, μM (50% inhibition)
[3] = Table 4, read-out: Avg Akt kinase, μM (50% inhibition)
[4] = average Akt kinase activity (IC50), read-out: Avg Akt kinase, μM (50% inhibition)

T1 sequence (P31749 118-480 S473D limits assumed, species assumed): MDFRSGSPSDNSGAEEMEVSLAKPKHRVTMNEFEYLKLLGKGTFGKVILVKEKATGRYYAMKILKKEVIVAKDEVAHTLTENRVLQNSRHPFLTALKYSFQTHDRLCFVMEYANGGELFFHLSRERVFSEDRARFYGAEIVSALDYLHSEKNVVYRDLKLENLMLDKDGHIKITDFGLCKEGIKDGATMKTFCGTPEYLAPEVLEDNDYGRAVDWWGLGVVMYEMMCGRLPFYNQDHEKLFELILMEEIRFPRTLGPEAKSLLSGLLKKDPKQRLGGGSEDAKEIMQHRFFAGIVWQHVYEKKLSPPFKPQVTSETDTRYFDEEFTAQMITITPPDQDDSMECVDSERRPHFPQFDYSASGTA

Compound | IC50 [1] | IC50 [2] | IC50 (read-out: Avg Akt kinase, μM (50% inhibition)) | IC50 [3] | IC50 [4]
Cc1c[nH]c2ncnc(N3CCC(N)(CNc4cccc(-c5cnco5)c4)C3)c12 (centres unmarked) [Example 44, 1-(5-methyl-7H-pyrrolo[2,3-d]pyrimidin-4-yl)-3-({[3-(1,3-oxazol-5-yl)phenyl]amino}methyl)pyrrolidin-3-amine] | 0.101 to 10 µM | 0.837 µM |  |  | 
Cc1c[nH]c2ncnc(N3CCC(N)(CN4CCc5ccccc54)C3)c12 (centres unmarked) [Example 51, 3-(2,3-dihydro-1H-indol-1-ylmethyl)-1-(5-methyl-7H-pyrrolo[2,3-d]pyrimidin-4-yl)pyrrolidin-3-amine] | 0.0101 to 0.1 µM | 0.0362 µM |  |  | 
Cc1c[nH]c2ncnc(N3CCC(N)(CNc4cccc(Cl)c4Cl)C3)c12 (centres unmarked) [Example 26, 3-{[(2,3-dichlorophenyl)amino]methyl}-1-(5-methyl-7H-pyrrolo[2,3-d]pyrimidin-4-yl)pyrrolidin-3-amine] | 0.00025 to 0.0025 µM | 0.002 µM |  |  | 
Cc1c[nH]c2ncnc(N3CCC(N)(CNS(=O)(=O)c4c(F)cccc4F)C3)c12 (centres unmarked) [Example 198, N-{[3-amino-1-(5-methyl-7H-pyrrolo[2,3-d]pyrimidin-4-yl)pyrrolidin-3-yl]methyl}-2,6-difluorobenzenesulfonamide] | 0.0101 to 0.1 µM |  | 0.00267 µM |  | 
Cc1c[nH]c2ncnc(N3CCC(N)(CNc4cccc(C(F)(F)F)c4)C3)c12 (centres unmarked) [Example 23, 1-(5-methyl-7H-pyrrolo[2,3-d]pyrimidin-4-yl)-3-({[3-(trifluoromethyl)phenyl]amino}-methyl)pyrrolidin-3-amine] | 0.00251 to 0.01 µM | 0.00669 µM |  |  | 
Cc1c[nH]c2ncnc(N3CCC(N)(COc4cccc(C(F)(F)F)c4)C3)c12 (centres unmarked) [Example 60, 1-(5-Methyl-7H-pyrrolo[2,3-d]pyrimidin-4-yl)-3-(3-trifluoromethyl-phenoxymethyl) pyrrolidin-3-ylamine] | 0.0101 to 0.1 µM |  |  | 0.0504 µM | 
3-{[(4-chlorophenyl)amino]methyl}-1-(1H-pyrrolo[2,3-b]pyridin-4-yl)pyrrolidin-3-amine [Example 17] |  | 0.331 µM |  |  | 
Cc1c[nH]c2ncnc(N3CC[C@](N)(CNC(=O)c4ccccc4Cl)C3)c12 [Example 71, N—(((S)-3-amino-1-(5-methyl-7H-pyrrolo[2,3-d]pyrimidin-4-yl)pyrrolidin-3-yl)methyl)-2-chlorobenzamide] | 0.00251 to 0.01 µM |  |  |  | 0.00797 µM
N[C@]1(CNC(=O)c2ccccc2F)CCN(c2ncnc3[nH]cc(Cl)c23)C1 [Example 80, N-{[(3S)-3-amino-1-(5-chloro-7H-pyrrolo[2,3-d]pyrimidin-4-yl)pyrrolidin-3-yl]methyl}-2-fluorobenzamide] | 0.00251 to 0.01 µM |  |  |  | 0.00424 µM
Cc1c[nH]c2ncnc(N3CC[C@](N)(CNC(=O)c4ccccc4)C3)c12 [Example 109, N-{[(3S)-3-amino-1-(5-methyl-7H-pyrrolo[2,3-d]pyrimidin-4-yl)pyrrolidin-3-yl]methyl}benzamide] | 0.00251 to 0.01 µM |  |  |  | 0.00586 µM
Cc1c[nH]c2ncnc(N3CCC(N)(CNc4ccc(Cl)cc4F)C3)c12 (centres unmarked) [Example 31, 3-{[(4-chloro-2-fluorophenyl)amino]methyl}-1-(5-methyl-7H-pyrrolo[2,3-d]pyrimidin-4-yl)pyrrolidin-3-amine] | 0.00251 to 0.01 µM | 0.00514 µM |  |  | 
Cc1cccc(C(=O)NC[C@@]2(N)CCN(c3ncnc4[nH]cc(C)c34)C2)c1Cl [Example 117] | 0.0101 to 0.1 µM |  |  |  | 0.0135 µM
Cc1c[nH]c2ncnc(N3CC[C@@](N)(COc4cccc(C(F)(F)F)c4)C3)c12 [Example 62] |  |  |  | 2.69 µM | 
Cc1c[nH]c2ncnc(N3CCC(N)(CNc4ccccc4S(=O)(=O)N4CC[C@@H](F)C4)C3)c12 (stereo partly drawn) [Example 15, 3-{[(2-{[(3R)-3-fluoropyrrolidin-1-yl]sulfonyl}phenyl)amino]methyl}-1-(5-methyl-7H-pyrrolo[2,3-d]pyrimidin-4-yl)pyrrolidin-3-amine] | 0.0101 to 0.1 µM | 0.0154 µM |  |  | 
